{
  "source": "patent EP4523686A1",
  "about": "“A SIGMA-1 RECEPTOR POSITIVE MODULATOR FOR ITS USE IN THE PREVENTION AND THE TREATMENT OF A PATHOLOGY” (priority 2023, dated 2025)",
  "key": {"[1]": {"tested_on": "Dizocilpine-induced learning impairments in mice", "experiment": "Step-through passive avoidance, Dizocilpine-induced learning impairments", "assay_type": "in vivo", "excerpt": "The apparatus is a two-compartments (15 × 20 × 15 cm high) box with one illuminated with white polyvinylchloride walls and the other darkened with black polyvinylchloride walls and a grid floor. A guillotine door separates each compartment. A 60 W lamp positioned 40 cm above the apparatus lights up the white compartment during the experiment. Scrambled foot shocks (0.3 mA for 3 s) could be delivered to the grid floor using a shock generator scrambler (Lafayette Instruments, Lafayette, USA). The guillotine door was initially closed during the training session. Each mouse was placed into the white compartment. After 5 s, the door was raised. When the mouse entered the darkened compartment and placed all its paws on the grid floor, the door is closed and the foot shocks delivered for 3 s. The step-through latency (STL-Tg), that is, the latency spent to enter the darkened compartment, and the number of vocalizations were recorded. The retention test was carried out 24 h after training. Each mouse was placed again into the white compartment. After 5 s, the door was raised. The step-through latency (STL-R) was recorded up to 300 s (Meunier et al., 2006, 2013; Villard et al., 2009, 2011). An exclusion criteria was STL-Tg and STL-R < 10 s. Animals showing these readouts are excluded from the calculations. Attrition is routinely < 5% in this test."}, "[2]": {"tested_on": "wfs1ab^KO zebrafish larvae", "experiment": "Visual motor response in zebrafish larvae (hyperlocomotor response)", "assay_type": "in vivo", "conditions": "at 3 µM in fish water", "experimental": "The visual motor response assay quantifies the locomotor activity of the zebrafish larvae to light intensity changes. The protocol was previously described (Crouzier et al., 2021a, 2021b, 2022). In brief, 5 dpf larvae were transfered in a 96-well plate (#7701-1651, Whatman) with 300 µl of fish water and placed in a Zebrabox® (ViewPoint, Lissieu, France). The locomotor behavior was monitored using an automated videotracking device equipped with an infra-red (IR) camera under IR light illumination (Zebralab®, Viewpoint). The light protocol was as follow: 30 min of acclimatization in the dark (0% light intensity), then 2 cycles of 10-min duration light ON and 10-min duration light OFF periods. The brightness changes were immediate (<< 1 s). The activity was measured in mm/s. For each larva, the mobility were calculated as mean (OFF-ON) values to account for inter- and intra-group variability in locomotor response.\nA phenotypic test described by Crouzier et al. (2022) was performed. […] Compounds were added in the fish water of larvae at 4 dpf for 24 h, and screening parameters included: (1) the lack of toxicity (including grossly observable morphological alterations) after 24 h exposure; (2) the locomotor increase in wfs1ab^KO larvae, expressed as % of V-treated wfs1ab^KO response; (3) the eventual alteration of locomotion in wfs1ab^WT larvae, expressed as % of V-treated wfs1ab^WT response; and (4) the Protection index (PI) calculated as detailed in the Methods section."}, "[3]": {"tested_on": "Dizocilpine-induced learning impairments in mice", "experiment": "Spontaneous alternation in the Y-maze, Dizocilpine-induced learning impairments", "assay_type": "in vivo", "conditions": "at the highest dose tested (range 0.1-3 mg/kg IP)", "experimental": "The Y-maze is made of grey polyvinylchloride. Each arm is 40 cm long, 13 cm high, 3 cm wide at the bottom, 10 cm wide at the top, and converging at an equal angle. Each mouse was placed at the end of one arm and allowed to move freely through the maze during an 8 min session. The series of arm entries, including possible returns into the same arm, were checked visually. An alternation is defined as entries into all three arms on consecutive occasions. The number of maximum alternations is therefore the total number of arm entries minus two and the percentage of alternation was calculated as (actual alternations / maximum alternations) × 100 (Maurice et al., 1996; Meunier et al., 2006, 2013). Exclusion criteria are locomotion < 10 or percentage of alternation < 25% or > 90%. Animals showing these readouts are excluded from the calculations. Attrition is routinely < 5% in this test.\nDue to the chaperone nature of SIG-1R, a SIG-1R positive modulator behaves as an agonist in vivo, particularly on learning and memory abilities in mice (Maurice et al., 2019; Vavers et al., 2019). Convolamine was tested on Dizocilpine-induced learning impairments, a well-characterized SIG-1R-mediated response in mice (Maurice et al., 1994, 2001). The NMDA receptor noncompetitive antagonist Dizocilpine (0.15 mg/kg IP) prevented spontaneous alternation behavior (Fig. 4A) and increased mobility (Fig. 4B) in the Y-maze. […] Co-treatment with the SIG-1R antagonist NE-100 at 1 mg/kg IP, blocked the attenuating effect of Convolamine (Fig. 4C), thus confirming the SIG-1R-mediated effect."}, "SIG-1R/BiP": {"target": "T1, SIG-1R/BiP (Homo sapiens, UniProt Q99720)", "T1 construct": "host or cells: CHO cells overexpressing GFP-SIG-1R", "T1 sequence (Q99720 whole entry)": "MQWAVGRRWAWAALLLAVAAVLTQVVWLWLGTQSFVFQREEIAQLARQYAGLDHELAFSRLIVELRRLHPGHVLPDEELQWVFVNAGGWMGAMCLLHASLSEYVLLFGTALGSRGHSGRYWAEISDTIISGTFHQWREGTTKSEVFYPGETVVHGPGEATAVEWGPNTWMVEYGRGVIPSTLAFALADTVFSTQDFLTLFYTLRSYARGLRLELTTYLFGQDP", "experiment": "SIG-1R/BiP dissociation assay in GFP-SIG-1R-overexpressing CHO cells", "assay_type": "cell-based", "conditions": "compound alone, at concentrations up to 30 µM", "experimental": "CHO cells which overexpress GFP tagged-SIG-1R (gift from Tsung-Ping Su, NIDA/NIH, Baltimore, MD, USA) were maintained in DMEM/Glutamax culture medium supplemented with 10% heat inactivated FBS. GFP-SIG-1Roe CHO cells were plated in 6-well plates and treated with test compounds dissolved in culture medium for 30 min at 37°C. The reaction was terminated by removing the culture medium containing the test drug and replacing it with 1 ml of PBS. GFP-SIG-1R-oe CHO cells were harvested and suspended in PBS (pH 7.4) followed by cross-linking with 50 µg/ml of dithiobis succinimidyl propionate (ThermoFisher, France). The reaction was stopped by adding Tris/HCl 50 mM (pH 8.8). After a 15 min incubation on ice, cells were lysed with 50 mM Tris (pH 7.4), 150 mM NaCl, 1% Triton X/100, 0.3% sodium deoxycholate, 0.1% SDS buffer containing a protease inhibitor cocktail (Sigma-Aldrich, France). After centrifugation at 16,000 g for 1 min, the supernatant was incubated with Chromotek GFP-trap agarose (Proteintech, United Kingdom) overnight at 4°C."}},
  "data": [
    {"smiles": "COc1ccc(C(=O)OC2CC3CCC(C2)N3)cc1OC", "note": "(stereo not drawn) [Convolvine, reference compound]", "values": [
      {"measurement": "Dizocilpine-induced decrease in step-through latency (in words)", "setting": "[1]; at 0.3 mg/kg IP", "value": "attenuated, but in a non-significant manner"},
      {"measurement": "Dizocilpine-induced increase in escape latency (in words)", "setting": "[1]; at the highest doses tested (range 0.1-3 mg/kg IP)", "value": "attenuated, but in a non-significant manner"},
      {"measurement": "hyperlocomotor response of wfs1ab^KO zebrafish (in words)", "setting": "[2]", "value": "failed to attenuate"},
      {"measurement": "Dizocilpine-induced alternation deficit (in words)", "setting": "[3]", "value": "significantly attenuated"}
    ]},
    {"smiles": "CCCN(CCC)CCc1ccc(OC)c(OCCc2ccccc2)c1", "note": "[NE-100, reference compound]", "values": [
      {"measurement": "dissociation of SIG-1R from BiP (in words)", "setting": "SIG-1R/BiP", "value": "ineffective"},
      {"measurement": "hyperlocomotor response of wfs1ab^KO zebrafish (in words)", "setting": "[2]", "value": "failed to affect"}
    ]}
  ]
}
